For the test, the target named is T1, human neurokinin-1 receptor (NK1R) (Homo sapiens, UniProt P25103).
T1 construct: expressed in transfected cells
T1 sequence (P25103 whole entry): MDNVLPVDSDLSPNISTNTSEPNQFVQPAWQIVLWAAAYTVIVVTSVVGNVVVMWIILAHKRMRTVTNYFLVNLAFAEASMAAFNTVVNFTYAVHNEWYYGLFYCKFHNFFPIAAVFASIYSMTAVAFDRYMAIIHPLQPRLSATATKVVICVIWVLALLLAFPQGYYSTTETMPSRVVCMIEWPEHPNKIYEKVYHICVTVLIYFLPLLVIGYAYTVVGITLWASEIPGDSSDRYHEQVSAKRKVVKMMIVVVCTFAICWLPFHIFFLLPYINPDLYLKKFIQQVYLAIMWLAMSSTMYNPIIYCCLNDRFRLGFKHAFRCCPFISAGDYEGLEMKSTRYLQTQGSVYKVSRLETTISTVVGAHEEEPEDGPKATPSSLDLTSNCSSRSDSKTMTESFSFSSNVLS
Kind of test: 125I-substance P binding assay of human NK1R expressed in COS or CHO cells. As to conditions: competition with 125I-substance P. The procedure: Receptor Expression in COS: To express the cloned human neurokinin-1 receptor (NK1R) transiently in COS, the cDNA for the human NK1R was cloned into the expression vector pCDM9 which was derived from pCDM8 (INVITROGEN) by inserting the ampicillin resistance gene (nucleotide 1973 to 2964 from BLUESCRIPT SK+) into the Sac II site. Transfection of 20 ug of the plasmid DNA into 10 million COS cells was achieved by electroporation in 800 ul of transfection buffer (135 mM NaCl, 1.2 mM CaCl2, 1.2 mM MgCl2, 2.4 mM K2HPO4, 0.6 mM KH2PO4, 10 mM glucose, 10 mM HEPES pH 7.4) at 260 V and 950 uF using the IBI GENEZAPPER (IBI, New Haven, Conn.). The cells were incubated in 10% fetal calf serum, 2 mM glutamine, 100 U/ml penicillin-streptomycin, and 90% DMEM media (GIBCO, Grand Island, N.Y.) in 5% CO2 at 37° C. for three days before the binding assay.
Stable Expression in CHO: To establish a stable cell line expressing the cloned human NK1R, the cDNA was subcloned into the vector pRcCMV (INVITROGEN). Transfection of 20 ug of the plasmid DNA into CHO cells was achieved by electroporation in 800 ul of transfection buffer supplemented with 0.625 mg/ml Herring sperm DNA at 300 V and 950 uF using the IBI GENEZAPPER (IBI). The transfected cells were incubated in CHO media [10% fetal calf serum, 100 U/ml penicillin-streptomycin, 2 mM glutamine, 1/500 hypoxanthine-thymidine (ATCC), 90% IMDM media (JRH BIOSCIENCES, Lenexa, Kans.), 0.7 mg/ml G418 (GIBCO)] in 5% CO2 at 37° C. until colonies were visible. Each colony was separated and propagated. The cell clone with the highest number of human NK1R was selected for subsequent applications such as drug screening.
Assay Protocol using COS or CHO: The binding assay of human NK1R expressed in either COS or CHO cells is based on the use of ^125I-substance P (^125I-SP, from DU PONT, Boston, Mass.) as a radioactively labeled ligand which competes with unlabeled substance P or any other ligand for binding to the human NK1R. Monolayer cell cultures of COS or CHO were dissociated by the non-enzymatic solution (SPECIALTY MEDIA, Lavallette, N.J.) and resuspended in appropriate volume of the binding buffer (50 mM Tris pH 7.5, 5 mM MnCl2, 150 mM NaCl, 0.04 mg/ml bacitracin, 0.004 mg/ml leupeptin, 0.2 mg/ml BSA, 0.01 mM phosphoramidon) such that 200 ul of the cell suspension would give rise to about 10,000 cpm of specific ^125I-SP binding (approximately 50,000 to 200,000 cells). In the binding assay, 200 ul of cells were added to a tube containing 20 ul of 1.5 to 2.5 nM of ^125I-SP and 20 ul of unlabeled substance P or any other test compound. The tubes were incubated at 4° C. or at room temperature for 1 hour with gentle shaking. The bound radioactivity was separated from unbound radioactivity by GF/C filter (BRANDEL, Gaithersburg, Md.) which was pre-wetted with 0.1% polyethylenimine. The filter was washed with 3 ml of wash buffer (50 mM Tris pH 7.5, 5 mM MnCl2, 150 mM NaCl) three times and its radioactivity was determined by gamma counter. The activation of phospholipase C by NK1R may also be measured in CHO cells expressing the human NK1R by determining the accumulation of inositol monophosphate which is a degradation product of IP3. CHO cells are seeded in 12-well plate at 250,000 cells per well. After incubating in CHO media for 4 days, cells are loaded with 0.025 uCi/ml of ^3H-myoinositol by overnight incubation. The extracellular radioactivity is removed by washing with phosphate buffered saline. LiCl is added to the well at final concentration of 0.1 mM with or without the test compound, and incubation is continued at 37° C. for […]. Substance P is added to the well at final concentration of 0.3 nM to activate the human NK1R. After 30 min of incubation at 37° C., the media is removed and 0.1 N HCl is added. Each well is sonicated at 4° C. and extracted with CHCl3/methanol (1:1). The aqueous phase is applied to a 1 ml Dowex AG 1X8 ion exchange column. […]
The compound `O=C1C=C(N2C[C@@H]3CCN(C(=O)Cc4cc(C(F)(F)F)cc(C(F)(F)F)c4)[C@H](c4ccc(F)cc4)[C@H]3C2)CC1` (racemic) [Example 1, 3-[(3aSR,4RS,7aSR)-5-{[3,5-bis(trifluoromethyl)phenyl]acetyl}-4-(4-fluorophenyl)octahydro-2H-pyrrolo[3,4-c]pyridin-2-yl]cyclcopent-2-en-1-one] yielded an IC50 of 1.7 nM.
For `CC(C(=O)N1CC[C@@H]2CN(C3=CC(=O)CC3)CC2[C@@H]1c1ccc(F)cc1)c1cc(C(F)(F)F)cc(C(F)(F)F)c1` (mixture of isomers) [Example 2, 3-[(3aSR,4RS,7aSR)-5-{2-[3,5-bis(trifluoromethyl)phenyl]propanoyl}-4-(4-fluorophenyl)octahydro-2H-pyrrolo[3,4-c]pyridin-2-yl]cyclopent-2-en-1-one], the IC50 came to 0.25 nM.
As for `CC(C(=O)N1CC[C@@H]2CN(C3=CC(=O)CC3)CC2[C@@H]1c1ccc(F)cc1)c1cc(C(F)(F)F)cc(C(F)(F)F)c1` (mixture of isomers) [Example 3, 3-[(3aSR,4RS,7aSR)-5-{2-[3,5-bis(trifluoromethyl)phenyl]propanoyl}-4-(4-fluorophenyl)octahydro-2H-pyrrolo[3,4-c]pyridin-2-yl]cyclopent-2-en-1-one], the figure is 12 nM; as for `CC(C)(C(=O)N1CC[C@@H]2CN(C3=CC(=O)CC3)C[C@H]2[C@@H]1c1ccc(F)cc1)c1cc(C(F)(F)F)cc(C(F)(F)F)c1` (racemic) [Example 4], 0.17 nM; as for `O=C(CN1CCOC1=O)N1C[C@H]2CCN(C(=O)Cc3cc(C(F)(F)F)cc(C(F)(F)F)c3)[C@@H](c3ccc(F)cc3)[C@@H]2C1` (racemic) [Example 5, 3-{2-[(3aSR,4RS,7aSR)-5-{[3,5-bis(trifluoromethyl)phenyl]acetyl}-4-(4-fluorophenyl)octahydro-2H-pyrrolo[3,4-c]pyridin-2-yl]-2-oxoethyl}-1,3-oxazolidin-2-one], 3.5 nM.
The compound `CC(c1cc(C(F)(F)F)cc(C(F)(F)F)c1)N(C)C(=O)N1CC[C@@H]2CN(C(=O)C3CCOCC3)C[C@H]2[C@@H]1c1ccc(F)cc1` (mixture of isomers) [Example 7, (3aSR,4RS,7aSR)-N-{1-[3,5-bis(trifluoromethyl)phenyl]ethyl}-4-(4-fluorophenyl)-N-methyl-2-(tetrahydro-2H-pyran-4-ylcarbonyl)octahydro-5H-pyrrolo[3,4-c]pyridine-5-carboxamide] had an IC50 of 0.53 nM.
`CC(c1cc(C(F)(F)F)cc(C(F)(F)F)c1)N(C)C(=O)N1CC[C@@H]2CN(C3=CC(=O)CC3)CC2[C@@H]1c1ccc(F)cc1` (stereo partly shown) [Example 6] came in with a half-maximal inhibitory concentration (IC50) of 0.16 nM.
`Cc1ccccc1[C@H]1[C@@H]2CN(Cc3ccccc3)C[C@H]2CCN1C(=O)N(C)[C@H](C)c1cc(C(F)(F)F)cc(C(F)(F)F)c1` [Example 8, (3aS,4R,7aS)-2-benzyl-N-{(1R)-1-[3,5-bis(trifluoromethyl)phenyl]ethyl}-N-methyl-4-(2-methylphenyl)octahydro-5H-pyrrolo[3,4-c]pyridine-5-carboxamide] yielded an IC50 of 1.19 nM.
For the compound `Cc1ccccc1[C@H]1[C@@H]2CNC[C@H]2CCN1C(=O)N(C)[C@H](C)c1cc(C(F)(F)F)cc(C(F)(F)F)c1` [Example 9, (3aS,4R,7aS)-N-{(1R)-1-[3,5-bis(trifluoromethyl)phenyl]ethyl}-N-methyl-4-(2-methylphenyl)octahydro-5H-pyrrolo[3,4-c]pyridine-5-carboxamide], the IC50 came to 0.041 nM.
Regarding `Cc1ccccc1[C@H]1[C@@H]2CN(C3=CC(=O)CC3)C[C@H]2CCN1C(=O)N(C)[C@H](C)c1cc(C(F)(F)F)cc(C(F)(F)F)c1` [Example 10, (3aS,4R,7aS)-N-{(1R)-1-[3,5-bis(trifluoromethyl)phenyl]ethyl}-N-methyl-4-(2-methylphenyl)-2-(3-oxocyclopent-1-en-1-yl)octahydro-5H-pyrrolo[3,4-c]-pyridine-5-carboxamide], the half-maximal inhibitory concentration (IC50) is 0.066 nM.

Source of the values: US20100197724A1, “6.5 -PYRROLOPIPERIDINE TACHYKININ RECEPTOR ANTAGONISTS” (priority 2007, published 2010).
